{"source": "patent US20100099762A1", "about": "“COMBINATION THERAPY” (THE MENTAL HEALTH RESEARCH INSTITUTE OF VICTORIA, priority 2006, published 2010)", "system": "total glutathione levels", "test": "Total glutathione in striatum and liver of rats after CHX depletion", "assay_type": "in vivo, Sprague-Dawley rats", "conditions": "CHX 75 mg/kg i.p.", "method": "Male Sprague-Dawley rats aged nine weeks and weighing an average of 390 g, were used in the study. Animals were maintained on a twelve hour light-dark cycle with water and food ad libitum. Two animals were housed per cage with room temperature maintained at 22° C.\nAll pharmacological agents were administered by intraperitoneal injection (i.p.) in a volume of 1 ml/kg, except where otherwise stated. All agents were prepared using saline as a diluent. Brain GSH depletion was performed using cyclohexene-1-one (CHX), administered at 75 mg/kg. Animals were returned to their cage for 90 minutes prior to administration of N-acetyl cysteine (NAC) or N-acetyl cysteine amide (NACA or “AD4”). Animals were killed by decapitation 1 hour after NACA or NAC treatment.\nFrontal cortex, striatum and liver samples were immediately excised on ice, weighed and sonicated in SSA buffer (5% sulfosalicylic acid in 100 mM disodium hydrogen orthophosphate, 100 mM sodium dihydrogen orthophosphate and 1 mM EDTA, pH 7.5, 5 mL/g wet tissue). The samples were subsequently centrifuged (22×10^3 g for 10 minutes, 4° C.) and the […] was taken and frozen at −80° C. until analysed.\nTotal glutathione levels (μmol GSH/gram tissue) were determined in all samples. Samples were assayed according to Baker et al. (1990). Reduced glutathione standards ranging from 0 to 320 ρmol of GSH in 50 μL were prepared in a background buffer identical to the samples (SSA buffer) and then treated in parallel with samples. 50 μl of sample or standard was placed on a 96-well microtiter plate with 100 μL of assay reagent (final concentration in well; 0.15 mM DTNB, 0.2 mM NADPH, 1.0 U glutathione reductase/mL). Plates were assayed for a total of 2 minutes at 414 nm using a Multiskan MCC/340 MK II plate reader and Genesis V3.05 computer software. All chemicals were purchased from Sigma-Aldrich. Statistical evaluation of the data was conducted using analysis of variance (ANOVA).", "note": "“Also recorded” adds a separate entry of the source.", "data": [{"compound": "O=C1C=CCCC1", "note": "[CHX, cyclohexene-1-one]", "values": [{"measurement": "Total glutathione levels in the brain striatum", "value": "significant decrease; also recorded: depleted"}, {"measurement": "Total glutathione levels in the liver", "value": "significant decrease; also recorded: depleted"}]}]}
